Assay results published in ChEMBL document CHEMBL1201862, “PubChem BioAssay data set” (2004).
Active and inactive are the calls of the source.

Key:
[1] = inhibitors of Bluetongue virus cytopathic effect, confirmation, arbovirus, BSR cells (AID 1250); type: functional;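 further: protection from viral cytopathic effect measured as cell viability by ATP luminescence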
[2] = cytotoxicity toward NIH3T3 fibroblasts, dose response, counter-screen, cell-based, ATP luminescence, mouse fibroblasts (AID 2010); type: functional;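 further: cells exposed to compound for about 90 hours before reading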
[3] = inhibitors of intracellular T. cruzi replication, confirmation, NIH3T3 host cells, beta-gal luminescence (AID 2044); type: functional, cell-based;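 further: intracellular parasites grown in NIH/3T3 mouse fibroblasts as host cells; luminescent beta-galactosidase reporter signal from transgenic T. cruzi replicating inside host cells; inhibitors lower the luminescence signal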
[4] = biological target: Eukaryotic translation initiation factor 4H (Homo sapiens, UniProt Q15056); experiment: eIF4H inhibition in translation initiation, SAR follow-up (AID 435011); type: functional
[5] = biological target: Polyadenylate-binding protein 1 (Homo sapiens, UniProt P11940); experiment: PABP inhibition in translation initiation, SAR follow-up (AID 435018); type: functional
Sequence of Polyadenylate-binding protein 1 (P11940 whole entry): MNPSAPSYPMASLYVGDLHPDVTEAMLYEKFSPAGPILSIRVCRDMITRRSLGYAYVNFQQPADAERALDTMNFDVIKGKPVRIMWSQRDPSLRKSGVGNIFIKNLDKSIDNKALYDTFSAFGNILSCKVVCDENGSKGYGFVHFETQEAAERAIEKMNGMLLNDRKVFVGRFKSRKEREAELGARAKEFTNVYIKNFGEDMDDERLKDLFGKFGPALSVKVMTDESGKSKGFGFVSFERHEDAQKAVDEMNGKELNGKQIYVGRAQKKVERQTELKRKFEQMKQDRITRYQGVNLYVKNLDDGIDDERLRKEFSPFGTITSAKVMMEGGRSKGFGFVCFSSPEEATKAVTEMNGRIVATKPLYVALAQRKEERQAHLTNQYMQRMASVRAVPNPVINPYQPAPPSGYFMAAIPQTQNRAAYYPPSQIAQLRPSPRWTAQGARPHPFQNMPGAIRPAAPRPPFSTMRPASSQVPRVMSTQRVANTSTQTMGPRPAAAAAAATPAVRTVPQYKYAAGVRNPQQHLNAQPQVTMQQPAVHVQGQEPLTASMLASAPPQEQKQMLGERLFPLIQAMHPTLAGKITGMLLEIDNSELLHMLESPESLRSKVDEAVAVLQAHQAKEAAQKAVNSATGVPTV

Aspartyl aminopeptidase = biological target: T1, Aspartyl aminopeptidase (Plasmodium falciparum 3D7, UniProt Q8I2J3); experiment: Counterscreen for inhibitors of M1 and M17 aminopeptidases: QFRET-based biochemical high throughput dose response assay for inhibitors of the Plasmodium falciparum M18 Aspartyl Aminopeptidase (PFM18AAP). [Related PubChem assays: 1619 (Screening assay (M17LAP inhibitors).), 1445 (Screening assay (M1AAP inhibitors).)]
T1 sequence (Q8I2J3 whole entry): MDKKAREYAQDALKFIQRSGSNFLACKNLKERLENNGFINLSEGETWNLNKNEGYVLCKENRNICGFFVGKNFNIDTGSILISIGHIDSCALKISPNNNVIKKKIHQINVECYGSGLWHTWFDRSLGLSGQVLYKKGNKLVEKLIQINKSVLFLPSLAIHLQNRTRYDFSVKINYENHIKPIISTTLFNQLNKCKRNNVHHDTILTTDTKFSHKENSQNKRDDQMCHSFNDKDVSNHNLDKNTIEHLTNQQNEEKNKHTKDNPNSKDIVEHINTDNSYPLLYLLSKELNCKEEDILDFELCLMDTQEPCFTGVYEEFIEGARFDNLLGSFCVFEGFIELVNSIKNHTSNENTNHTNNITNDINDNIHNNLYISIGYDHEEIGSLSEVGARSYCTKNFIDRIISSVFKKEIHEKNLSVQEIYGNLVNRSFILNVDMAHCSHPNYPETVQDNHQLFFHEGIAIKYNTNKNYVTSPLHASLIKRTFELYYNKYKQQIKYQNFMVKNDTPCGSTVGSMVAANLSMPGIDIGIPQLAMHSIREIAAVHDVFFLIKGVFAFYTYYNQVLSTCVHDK

Procathepsin L = Procathepsin L (Homo sapiens, UniProt P07711); experiment: cathepsin L inhibitors, dose response, counter-screen for M1/M17 aminopeptidase inhibitor project, biochemical, QFRET, 1536-well (AID 2214)
Sequence of Procathepsin L (P07711 whole entry): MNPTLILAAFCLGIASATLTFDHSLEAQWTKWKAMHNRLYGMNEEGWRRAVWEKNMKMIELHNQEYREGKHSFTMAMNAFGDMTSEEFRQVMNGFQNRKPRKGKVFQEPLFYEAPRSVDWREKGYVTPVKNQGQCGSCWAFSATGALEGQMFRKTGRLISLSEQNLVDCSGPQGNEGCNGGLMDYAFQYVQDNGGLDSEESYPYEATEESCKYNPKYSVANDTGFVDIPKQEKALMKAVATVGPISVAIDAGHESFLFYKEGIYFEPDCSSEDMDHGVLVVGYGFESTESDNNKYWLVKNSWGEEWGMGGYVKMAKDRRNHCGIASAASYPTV

Leucine aminopeptidase = biological target: T2, Leucine aminopeptidase (Plasmodium falciparum 3D7, UniProt Q8IL11); experiment: P. falciparum M17LAP inhibitors, primary screen, biochemical, fluorogenic H-Leu-NHMec substrate, 1536-well (AID 1619); type: functional
T2 sequence (Q8IL11 whole entry): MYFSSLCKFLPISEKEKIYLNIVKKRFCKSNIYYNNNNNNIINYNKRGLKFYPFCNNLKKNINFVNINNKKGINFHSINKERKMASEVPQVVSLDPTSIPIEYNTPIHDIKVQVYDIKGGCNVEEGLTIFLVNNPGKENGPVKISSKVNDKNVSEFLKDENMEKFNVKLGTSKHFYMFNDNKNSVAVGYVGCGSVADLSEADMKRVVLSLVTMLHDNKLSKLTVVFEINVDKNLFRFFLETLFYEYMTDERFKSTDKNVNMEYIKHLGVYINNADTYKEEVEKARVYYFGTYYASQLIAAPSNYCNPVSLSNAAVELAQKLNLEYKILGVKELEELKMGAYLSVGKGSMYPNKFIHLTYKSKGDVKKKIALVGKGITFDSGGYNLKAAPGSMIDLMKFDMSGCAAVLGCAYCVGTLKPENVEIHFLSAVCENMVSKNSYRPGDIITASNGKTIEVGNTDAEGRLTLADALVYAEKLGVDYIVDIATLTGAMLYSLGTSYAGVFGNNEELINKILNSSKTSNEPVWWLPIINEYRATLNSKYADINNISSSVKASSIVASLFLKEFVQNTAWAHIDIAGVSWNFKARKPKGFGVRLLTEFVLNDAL

## S=C(NCc1ccccc1)N1CCn2cccc2C1c1cccnc1 (centres undefined)
[1]
  IC50: 22.1 µM (active)
[2]
  EC50: > 60 µM (inconclusive)
[3]
  EC50: 2.95 µM (active)

## O=C(COc1ccc(C=NNC(=O)c2ccccc2O)cc1)Nc1ccccc1
[4]
  IC50: > 100 µM (inactive)
[5]
  IC50: > 100 µM (inactive)

## COC(=O)c1c(-c2ccco2)csc1NC(=O)C1CC=CCC1C(=O)O (centres undefined)
Aspartyl aminopeptidase
  IC50: > 73.5 µM (not active)
Procathepsin L
  IC50: > 59.6 µM (not active)
Leucine aminopeptidase
  IC50: 1.39 µM (active)

## COC(=O)/C=C/c1sc2nc(C)cc(C)c2c1/N=C/N(C)C
[1]
  IC50: 34.4 µM (active)
